target: Cytochrome P450 2E1 (Homo sapiens, UniProt P05181); test: not given; conditions: bti-tn-5b1-4; further: in other assays of this panel Not Active means under 50% inhibition at 10 µM
Sequence (P05181 whole entry): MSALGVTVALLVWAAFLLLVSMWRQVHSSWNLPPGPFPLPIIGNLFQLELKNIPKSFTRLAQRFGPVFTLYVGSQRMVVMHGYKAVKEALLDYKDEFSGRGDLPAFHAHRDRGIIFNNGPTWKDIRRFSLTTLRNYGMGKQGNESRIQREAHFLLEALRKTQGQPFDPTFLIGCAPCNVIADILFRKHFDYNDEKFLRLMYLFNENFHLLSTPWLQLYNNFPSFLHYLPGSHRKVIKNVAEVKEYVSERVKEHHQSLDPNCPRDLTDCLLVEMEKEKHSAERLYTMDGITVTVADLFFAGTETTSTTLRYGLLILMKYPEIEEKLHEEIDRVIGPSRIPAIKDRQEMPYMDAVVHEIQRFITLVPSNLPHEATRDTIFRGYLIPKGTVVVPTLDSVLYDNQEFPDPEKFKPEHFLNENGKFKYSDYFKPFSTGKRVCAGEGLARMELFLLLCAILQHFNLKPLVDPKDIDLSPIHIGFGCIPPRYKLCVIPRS

SMILES | IC50 | Ki
CC(C)(Oc1ccc(CCNC(=O)c2ccc(Cl)cc2)cc1)C(=O)O [BEZAFIBRATE] | Not Active | Not Active
CC(C)n1c(/C=C/C(O)CC(O)CC(=O)O)c(-c2ccc(F)cc2)c2ccccc21 (stereo unspecified) [FLUVASTATIN] | Not Active | Not Active
COCc1c(C(C)C)nc(C(C)C)c(/C=C/[C@@H](O)C[C@@H](O)CC(=O)O)c1-c1ccc(F)cc1 [CERIVASTATIN] | Not Active | Not Active

target: 5-hydroxytryptamine receptor 6 (Homo sapiens, UniProt P50406); test: not given; type: cell membranes, HeLa, Membrane; conditions: hela; further: in other assays of this panel Not Active means under 50% inhibition at 10 µM
Sequence (P50406 whole entry): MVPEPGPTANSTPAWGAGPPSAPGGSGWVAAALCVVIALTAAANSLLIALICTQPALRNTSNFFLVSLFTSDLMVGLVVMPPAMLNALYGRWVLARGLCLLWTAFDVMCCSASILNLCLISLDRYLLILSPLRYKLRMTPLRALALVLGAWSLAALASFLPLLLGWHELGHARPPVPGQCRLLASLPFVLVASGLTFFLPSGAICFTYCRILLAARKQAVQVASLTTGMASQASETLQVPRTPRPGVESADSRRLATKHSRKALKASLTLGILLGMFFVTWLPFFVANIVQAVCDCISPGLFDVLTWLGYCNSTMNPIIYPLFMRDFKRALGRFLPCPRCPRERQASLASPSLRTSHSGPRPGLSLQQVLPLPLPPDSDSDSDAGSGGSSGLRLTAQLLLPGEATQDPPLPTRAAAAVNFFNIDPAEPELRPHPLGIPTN

SMILES | IC50
CC(C)(Oc1ccc(CCNC(=O)c2ccc(Cl)cc2)cc1)C(=O)O [BEZAFIBRATE] | Not Active
CC(C)n1c(/C=C/C(O)CC(O)CC(=O)O)c(-c2ccc(F)cc2)c2ccccc21 (stereo unspecified) [FLUVASTATIN] | Not Active
COCc1c(C(C)C)nc(C(C)C)c(/C=C/[C@@H](O)C[C@@H](O)CC(=O)O)c1-c1ccc(F)cc1 [CERIVASTATIN] | Not Active

target: 5-hydroxytryptamine receptor 2B (Homo sapiens, UniProt P41595); test: not given; type: cell membranes, CHO-K1, Membrane; conditions: cho-k1; further: in other assays of this panel Not Active means under 50% inhibition at 10 µM
Sequence (P41595 whole entry): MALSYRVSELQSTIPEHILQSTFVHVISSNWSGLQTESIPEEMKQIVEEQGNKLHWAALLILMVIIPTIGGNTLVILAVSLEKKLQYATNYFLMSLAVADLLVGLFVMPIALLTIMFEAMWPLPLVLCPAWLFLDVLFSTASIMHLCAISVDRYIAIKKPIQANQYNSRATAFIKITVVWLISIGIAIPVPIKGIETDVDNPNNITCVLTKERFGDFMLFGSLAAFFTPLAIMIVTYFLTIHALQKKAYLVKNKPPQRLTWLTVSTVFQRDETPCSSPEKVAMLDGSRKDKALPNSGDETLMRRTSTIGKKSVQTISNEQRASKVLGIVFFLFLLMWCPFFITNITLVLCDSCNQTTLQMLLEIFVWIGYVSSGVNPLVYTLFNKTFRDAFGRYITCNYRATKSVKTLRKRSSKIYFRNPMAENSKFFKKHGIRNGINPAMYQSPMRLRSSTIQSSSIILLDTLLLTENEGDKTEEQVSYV

SMILES | IC50
CC(C)(Oc1ccc(CCNC(=O)c2ccc(Cl)cc2)cc1)C(=O)O [BEZAFIBRATE] | Not Active
CC(C)n1c(/C=C/C(O)CC(O)CC(=O)O)c(-c2ccc(F)cc2)c2ccccc21 (stereo unspecified) [FLUVASTATIN] | Not Active
COCc1c(C(C)C)nc(C(C)C)c(/C=C/[C@@H](O)C[C@@H](O)CC(=O)O)c1-c1ccc(F)cc1 [CERIVASTATIN] | Not Active

target: Cytochrome P450 2D6 (Homo sapiens, UniProt P10635); test: not given; conditions: bti-tn-5b1-4; further: in other assays of this panel Not Active means under 50% inhibition at 10 µM
Sequence (P10635 whole entry): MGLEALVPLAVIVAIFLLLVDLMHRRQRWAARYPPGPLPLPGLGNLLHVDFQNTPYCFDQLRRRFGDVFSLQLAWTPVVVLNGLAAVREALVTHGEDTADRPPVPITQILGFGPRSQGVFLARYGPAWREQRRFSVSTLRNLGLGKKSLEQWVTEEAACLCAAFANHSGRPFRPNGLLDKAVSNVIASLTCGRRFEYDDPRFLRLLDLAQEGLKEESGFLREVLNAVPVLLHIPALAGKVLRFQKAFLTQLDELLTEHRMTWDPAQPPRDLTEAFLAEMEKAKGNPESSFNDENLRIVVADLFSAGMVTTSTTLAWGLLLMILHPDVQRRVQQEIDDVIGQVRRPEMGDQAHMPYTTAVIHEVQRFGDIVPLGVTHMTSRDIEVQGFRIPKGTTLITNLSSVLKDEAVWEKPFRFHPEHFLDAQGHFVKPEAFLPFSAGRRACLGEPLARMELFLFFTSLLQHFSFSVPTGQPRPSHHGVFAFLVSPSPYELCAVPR

SMILES | IC50 | Ki
CC(C)(Oc1ccc(CCNC(=O)c2ccc(Cl)cc2)cc1)C(=O)O [BEZAFIBRATE] | Not Active | Not Active
CC(C)n1c(/C=C/C(O)CC(O)CC(=O)O)c(-c2ccc(F)cc2)c2ccccc21 (stereo unspecified) [FLUVASTATIN] | Not Active | Not Active
COCc1c(C(C)C)nc(C(C)C)c(/C=C/[C@@H](O)C[C@@H](O)CC(=O)O)c1-c1ccc(F)cc1 [CERIVASTATIN] | Not Active | Not Active

target: T1, C-X-C chemokine receptor type 2 (Homo sapiens, UniProt P25025); test: not given; type: cell membranes, Membrane; conditions: cho-k1; further: in other assays of this panel Not Active means under 50% inhibition at 10 µM
T1 sequence (P25025 whole entry): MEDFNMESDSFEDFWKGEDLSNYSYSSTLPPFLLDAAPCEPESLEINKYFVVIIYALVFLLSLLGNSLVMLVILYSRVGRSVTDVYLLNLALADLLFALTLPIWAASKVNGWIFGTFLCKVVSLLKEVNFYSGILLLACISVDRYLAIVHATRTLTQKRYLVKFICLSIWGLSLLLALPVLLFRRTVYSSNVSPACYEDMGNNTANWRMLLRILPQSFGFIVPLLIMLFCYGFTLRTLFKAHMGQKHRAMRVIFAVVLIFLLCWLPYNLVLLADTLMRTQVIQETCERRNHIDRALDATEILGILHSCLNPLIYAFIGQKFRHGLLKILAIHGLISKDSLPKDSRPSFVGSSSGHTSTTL

SMILES | IC50
CC(C)(Oc1ccc(CCNC(=O)c2ccc(Cl)cc2)cc1)C(=O)O [BEZAFIBRATE] | Not Active
CC(C)n1c(/C=C/C(O)CC(O)CC(=O)O)c(-c2ccc(F)cc2)c2ccccc21 (stereo unspecified) [FLUVASTATIN] | Not Active
COCc1c(C(C)C)nc(C(C)C)c(/C=C/[C@@H](O)C[C@@H](O)CC(=O)O)c1-c1ccc(F)cc1 [CERIVASTATIN] | Not Active

target: T2, Polyunsaturated fatty acid lipoxygenase ALOX15 (Oryctolagus cuniculus, UniProt P12530); test: biochemical; type: tissue-based, Reticulocytes; conditions: reticulocytes
T2 sequence (P12530 whole entry): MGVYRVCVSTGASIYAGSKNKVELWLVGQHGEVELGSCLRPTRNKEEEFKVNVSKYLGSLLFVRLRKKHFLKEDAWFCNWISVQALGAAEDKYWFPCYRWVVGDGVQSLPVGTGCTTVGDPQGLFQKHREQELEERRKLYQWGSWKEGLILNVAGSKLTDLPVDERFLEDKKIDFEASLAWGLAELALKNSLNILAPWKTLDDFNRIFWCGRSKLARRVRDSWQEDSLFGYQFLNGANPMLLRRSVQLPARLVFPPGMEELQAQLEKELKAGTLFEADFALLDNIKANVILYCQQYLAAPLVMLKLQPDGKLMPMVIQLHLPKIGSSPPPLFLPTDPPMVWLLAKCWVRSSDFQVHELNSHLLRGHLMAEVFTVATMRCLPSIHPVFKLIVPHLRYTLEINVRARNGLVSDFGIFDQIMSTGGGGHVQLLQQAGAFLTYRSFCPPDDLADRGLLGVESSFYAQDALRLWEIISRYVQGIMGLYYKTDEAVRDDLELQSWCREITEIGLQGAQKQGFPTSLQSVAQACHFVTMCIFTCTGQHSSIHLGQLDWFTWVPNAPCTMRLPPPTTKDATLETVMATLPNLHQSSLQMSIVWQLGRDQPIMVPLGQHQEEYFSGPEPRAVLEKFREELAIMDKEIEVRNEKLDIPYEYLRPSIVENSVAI

SMILES | IC50
CC(C)(Oc1ccc(CCNC(=O)c2ccc(Cl)cc2)cc1)C(=O)O [BEZAFIBRATE] | Not Active
CC(C)n1c(/C=C/C(O)CC(O)CC(=O)O)c(-c2ccc(F)cc2)c2ccccc21 (stereo unspecified) [FLUVASTATIN] | Not Active
COCc1c(C(C)C)nc(C(C)C)c(/C=C/[C@@H](O)C[C@@H](O)CC(=O)O)c1-c1ccc(F)cc1 [CERIVASTATIN] | Not Active

target: D(1A) dopamine receptor (Homo sapiens, UniProt P21728); test: DRUGMATRIX: Dopamine D1 radioligand binding (ligand: [3H] SCH-23390); type: cell membranes, CHO, Membrane; conditions: cho; Not Active = under 50% inhibition at 10 µM
Sequence (P21728 whole entry): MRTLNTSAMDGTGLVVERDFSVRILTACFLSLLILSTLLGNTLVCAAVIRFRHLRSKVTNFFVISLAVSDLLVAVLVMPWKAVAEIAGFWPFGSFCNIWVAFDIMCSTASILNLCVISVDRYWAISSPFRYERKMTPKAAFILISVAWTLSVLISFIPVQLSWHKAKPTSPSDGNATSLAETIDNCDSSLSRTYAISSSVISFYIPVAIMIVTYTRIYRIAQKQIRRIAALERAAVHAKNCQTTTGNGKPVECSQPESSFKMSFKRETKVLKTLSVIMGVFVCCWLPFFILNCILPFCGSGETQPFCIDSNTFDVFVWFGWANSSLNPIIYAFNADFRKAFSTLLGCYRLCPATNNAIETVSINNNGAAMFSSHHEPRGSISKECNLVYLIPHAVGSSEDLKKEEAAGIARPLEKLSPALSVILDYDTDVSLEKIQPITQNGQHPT

SMILES | IC50
CC(C)(Oc1ccc(CCNC(=O)c2ccc(Cl)cc2)cc1)C(=O)O [BEZAFIBRATE] | Not Active
CC(C)n1c(/C=C/C(O)CC(O)CC(=O)O)c(-c2ccc(F)cc2)c2ccccc21 (stereo unspecified) [FLUVASTATIN] | Not Active
COCc1c(C(C)C)nc(C(C)C)c(/C=C/[C@@H](O)C[C@@H](O)CC(=O)O)c1-c1ccc(F)cc1 [CERIVASTATIN] | Not Active

target: T3, Adenosine receptor A3 (Homo sapiens, UniProt P0DMS8); test: not given; type: cell membranes, CHO-K1, Membrane; conditions: cho-k1
T3 sequence (P0DMS8 whole entry): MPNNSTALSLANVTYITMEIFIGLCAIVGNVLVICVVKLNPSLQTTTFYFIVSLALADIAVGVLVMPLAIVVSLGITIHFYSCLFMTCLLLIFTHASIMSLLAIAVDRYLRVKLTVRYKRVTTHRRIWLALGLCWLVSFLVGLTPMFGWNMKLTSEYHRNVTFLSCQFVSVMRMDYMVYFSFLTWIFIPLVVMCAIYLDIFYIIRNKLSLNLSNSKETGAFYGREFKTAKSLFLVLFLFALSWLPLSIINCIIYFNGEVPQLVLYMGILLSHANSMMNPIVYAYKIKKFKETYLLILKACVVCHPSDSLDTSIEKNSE

SMILES | IC50
CC(C)(Oc1ccc(CCNC(=O)c2ccc(Cl)cc2)cc1)C(=O)O [BEZAFIBRATE] | Not Active
CC(C)n1c(/C=C/C(O)CC(O)CC(=O)O)c(-c2ccc(F)cc2)c2ccccc21 (stereo unspecified) [FLUVASTATIN] | Not Active
COCc1c(C(C)C)nc(C(C)C)c(/C=C/[C@@H](O)C[C@@H](O)CC(=O)O)c1-c1ccc(F)cc1 [CERIVASTATIN] | Not Active

target: Histamine H2 receptor (Homo sapiens, UniProt P25021); test: not given; type: cell membranes, CHO-K1, Membrane; conditions: cho-k1; further: in other assays of this panel Not Active means under 50% inhibition at 10 µM
Sequence (P25021 whole entry): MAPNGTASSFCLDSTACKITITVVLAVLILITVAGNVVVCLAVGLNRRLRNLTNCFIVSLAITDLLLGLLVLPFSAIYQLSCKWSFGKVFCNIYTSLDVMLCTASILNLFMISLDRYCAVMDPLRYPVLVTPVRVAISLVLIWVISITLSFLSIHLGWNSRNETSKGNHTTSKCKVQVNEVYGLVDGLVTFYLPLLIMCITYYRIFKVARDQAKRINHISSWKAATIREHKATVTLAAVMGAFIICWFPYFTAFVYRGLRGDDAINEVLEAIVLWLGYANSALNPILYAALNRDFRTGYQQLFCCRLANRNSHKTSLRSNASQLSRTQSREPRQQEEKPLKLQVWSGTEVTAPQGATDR

SMILES | IC50
CC(C)(Oc1ccc(CCNC(=O)c2ccc(Cl)cc2)cc1)C(=O)O [BEZAFIBRATE] | Not Active
CC(C)n1c(/C=C/C(O)CC(O)CC(=O)O)c(-c2ccc(F)cc2)c2ccccc21 (stereo unspecified) [FLUVASTATIN] | Not Active
COCc1c(C(C)C)nc(C(C)C)c(/C=C/[C@@H](O)C[C@@H](O)CC(=O)O)c1-c1ccc(F)cc1 [CERIVASTATIN] | Not Active

target: T4, Alpha-1B adrenergic receptor (Rattus norvegicus, UniProt P15823); test: DRUGMATRIX: Alpha-1B adrenergic receptor radioligand binding (ligand: prazosin); type: cell membranes, Wistar, Liver, Membrane; conditions: Not Active = under 50% inhibition at 10 µM
T4 sequence (P15823 whole entry): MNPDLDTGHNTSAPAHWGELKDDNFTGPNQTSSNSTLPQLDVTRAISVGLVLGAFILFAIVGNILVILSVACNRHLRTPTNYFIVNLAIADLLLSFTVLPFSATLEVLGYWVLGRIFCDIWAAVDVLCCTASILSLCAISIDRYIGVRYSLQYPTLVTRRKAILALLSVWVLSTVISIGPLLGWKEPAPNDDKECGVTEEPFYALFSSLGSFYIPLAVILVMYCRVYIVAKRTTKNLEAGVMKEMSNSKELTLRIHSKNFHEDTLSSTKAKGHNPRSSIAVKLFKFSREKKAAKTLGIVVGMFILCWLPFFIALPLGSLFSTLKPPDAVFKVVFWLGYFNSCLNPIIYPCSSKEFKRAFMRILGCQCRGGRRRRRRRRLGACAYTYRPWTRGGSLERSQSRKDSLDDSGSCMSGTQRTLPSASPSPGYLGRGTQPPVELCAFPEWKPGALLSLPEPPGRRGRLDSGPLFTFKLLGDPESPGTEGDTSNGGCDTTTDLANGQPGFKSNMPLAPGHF

SMILES | IC50
CC(C)(Oc1ccc(CCNC(=O)c2ccc(Cl)cc2)cc1)C(=O)O [BEZAFIBRATE] | Not Active
CC(C)n1c(/C=C/C(O)CC(O)CC(=O)O)c(-c2ccc(F)cc2)c2ccccc21 (stereo unspecified) [FLUVASTATIN] | Not Active
COCc1c(C(C)C)nc(C(C)C)c(/C=C/[C@@H](O)C[C@@H](O)CC(=O)O)c1-c1ccc(F)cc1 [CERIVASTATIN] | Not Active

target: Beta-3 adrenergic receptor (Homo sapiens, UniProt P13945); test: DRUGMATRIX: Adrenergic beta3 radioligand binding (ligand: [125I] Cyanopindolol); type: cell membranes, HEK293, Membrane; conditions: hek293; Not Active = under 50% inhibition at 10 µM
Sequence (P13945 whole entry): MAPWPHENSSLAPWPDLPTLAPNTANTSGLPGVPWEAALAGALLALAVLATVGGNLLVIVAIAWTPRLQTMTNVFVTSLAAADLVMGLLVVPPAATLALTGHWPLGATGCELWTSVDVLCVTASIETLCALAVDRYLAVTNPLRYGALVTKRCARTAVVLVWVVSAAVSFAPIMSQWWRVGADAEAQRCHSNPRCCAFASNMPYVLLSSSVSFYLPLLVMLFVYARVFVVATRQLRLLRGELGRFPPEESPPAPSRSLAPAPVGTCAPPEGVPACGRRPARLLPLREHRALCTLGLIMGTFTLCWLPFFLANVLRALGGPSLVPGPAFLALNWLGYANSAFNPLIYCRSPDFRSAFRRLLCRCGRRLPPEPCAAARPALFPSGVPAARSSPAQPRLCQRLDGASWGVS

SMILES | IC50
CC(C)(Oc1ccc(CCNC(=O)c2ccc(Cl)cc2)cc1)C(=O)O [BEZAFIBRATE] | Not Active
CC(C)n1c(/C=C/C(O)CC(O)CC(=O)O)c(-c2ccc(F)cc2)c2ccccc21 (stereo unspecified) [FLUVASTATIN] | Not Active
COCc1c(C(C)C)nc(C(C)C)c(/C=C/[C@@H](O)C[C@@H](O)CC(=O)O)c1-c1ccc(F)cc1 [CERIVASTATIN] | Not Active

tested on: not listed separately; test: DRUGMATRIX: GABAA, Chloride Channel, TBOB radioligand binding (ligand: [3H] TBOB); type: cell membranes, Rattus norvegicus, Wistar, Cerebral cortex, Membrane; conditions: Not Active = under 50% inhibition at 10 µM

SMILES | IC50 | Ki
CC(C)(Oc1ccc(CCNC(=O)c2ccc(Cl)cc2)cc1)C(=O)O [BEZAFIBRATE] | Not Active | Not Active
CC(C)n1c(/C=C/C(O)CC(O)CC(=O)O)c(-c2ccc(F)cc2)c2ccccc21 (stereo unspecified) [FLUVASTATIN] | Not Active | Not Active
COCc1c(C(C)C)nc(C(C)C)c(/C=C/[C@@H](O)C[C@@H](O)CC(=O)O)c1-c1ccc(F)cc1 [CERIVASTATIN] | Not Active | Not Active

tested on: not listed separately; test: DRUGMATRIX: Calcium Channel Type L, Benzothiazepine radioligand binding (ligand: [3H] Diltiazem); type: cell membranes, Rattus norvegicus, Wistar, Brain, Membrane; conditions: Not Active = under 50% inhibition at 10 µM

SMILES | IC50 | Ki
CC(C)(Oc1ccc(CCNC(=O)c2ccc(Cl)cc2)cc1)C(=O)O [BEZAFIBRATE] | Not Active | Not Active
CC(C)n1c(/C=C/C(O)CC(O)CC(=O)O)c(-c2ccc(F)cc2)c2ccccc21 (stereo unspecified) [FLUVASTATIN] | Not Active | Not Active
COCc1c(C(C)C)nc(C(C)C)c(/C=C/[C@@H](O)C[C@@H](O)CC(=O)O)c1-c1ccc(F)cc1 [CERIVASTATIN] | Not Active | Not Active

From ChEMBL document CHEMBL1909046, “DrugMatrix in vitro pharmacology data”
